Experimental findings from patent US20170291905A1, “ARGININE […] INHIBITORS AND USES THEREOF” (Epizyme, Inc., priority 2014, published 2017) are described below.

Structures can show the parent of a compound that is named as a salt.

As usually defined, the IC50 is the concentration that inhibits the measured activity by half.

T1 sequence (Q99873 with tags, fused parts or gaps): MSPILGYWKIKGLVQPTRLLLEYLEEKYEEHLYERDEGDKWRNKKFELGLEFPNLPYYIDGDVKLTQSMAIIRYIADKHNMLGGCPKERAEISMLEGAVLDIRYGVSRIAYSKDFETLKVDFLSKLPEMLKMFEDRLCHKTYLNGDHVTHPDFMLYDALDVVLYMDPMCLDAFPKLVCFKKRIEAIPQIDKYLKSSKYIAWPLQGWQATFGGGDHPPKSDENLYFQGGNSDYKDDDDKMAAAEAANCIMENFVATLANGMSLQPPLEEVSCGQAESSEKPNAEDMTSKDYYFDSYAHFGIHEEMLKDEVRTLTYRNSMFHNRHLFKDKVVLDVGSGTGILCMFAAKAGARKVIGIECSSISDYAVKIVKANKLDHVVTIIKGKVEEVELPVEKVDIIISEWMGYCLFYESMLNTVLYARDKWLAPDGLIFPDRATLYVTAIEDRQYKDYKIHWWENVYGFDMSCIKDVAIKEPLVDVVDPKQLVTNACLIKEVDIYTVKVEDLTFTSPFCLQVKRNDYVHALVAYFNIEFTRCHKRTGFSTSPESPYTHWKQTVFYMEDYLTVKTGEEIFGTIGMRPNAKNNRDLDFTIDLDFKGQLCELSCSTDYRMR

The assay has as its target T1, full-length human PRMT1 isoform 1 (GST-tagged) (Homo sapiens, UniProt Q99873).
T1 construct: GST-tagged PRMT1 was eluted with 50 mM Tris, 2 mM glutathione, pH 7.8, dialysed in buffer A and concentrated; made in house; host or cells: High Five insect cells (baculovirus)
Kind of assay: PRMT1 biochemical assay (3H-SAM Flashplate, histone H4 36-50 peptide). The conditions noted are these: 0.5 nM PRMT1, 30 min preincubation, 20 nM peptide. From the text: S-adenosylmethionine (SAM), S-adenosylhomocysteine (SAH), bicine, Tween20, dimethylsulfoxide (DMSO), bovine skin gelatin (BSG), and Tris(2-carboxyethyl)phosphine hydrochloride solution (TCEP) were purchased from Sigma-Aldrich at the highest level of purity possible. ^3H-SAM was purchase from American Radiolabeled Chemicals with a specific activity of 80 Ci/mmol. 384-well streptavidin Flashplates were purchased from PerkinElmer.
Peptide representative of human histone H4 residues 36-50 was synthesized with an N-terminal linker-affinity tag motif and a C-terminal amide cap by 21st Century Biochemicals. The peptide was purified by high-performance liquid chromatography (HPLC) to greater than 95% purity and confirmed by liquid chromatography mass spectrometry (LC-MS). The sequence was Biot-Ahx-[…]-amide (SEQ ID NO.:1).
Full-length human PRMT1 isoform 1 (NM_001536.5) transcript clone was amplified from an HEK 293 cDNA library, incorporating flanking 5′ sequence encoding a FLAG tag ([…]) (SEQ ID NO.:2) fused directly to Met 1 of PRMT1. The amplified gene was subcloned into pFastBacI (Life Technologies) modified to encode an N-terminal GST tag and a TEV cleavage sequence
Recombinant baculovirus were generated according to Bac-to-Bac kit instructions (Life Technologies). Protein over-expression was accomplished by infecting exponentially growing High Five insect cell culture at 1.5×10^6 cell/ml with 1:100 ratio of virus. Infections were carried out at 27° C. for 48 hours, harvested by centrifugation, and stored at −80° C. for purification.
GST-tagged PRMT1 was eluted with 50 mM Tris, 2 mM glutathione, pH 7.8, dialysed in buffer A and concentrated to 1 mg/mL. The purity of recovered protein was 73%. Reference: Wasilko, D. J. and S. E. Lee: “TIPS: titerless infected-cells preservation and scale-up” Bioprocess J., 5 (2006), pp. 29-32.
General Procedure for PRMT1 Enzyme Assays on Peptide Substrates.
The assays were all performed in a buffer consisting of 20 mM Bicine (pH=7.6), 1 mM TCEP, 0.005% BSG, and 0.002% Tween 20, prepared on the day of use. Compounds in 100% DMSO (1 ul) were spotted into a polypropylene 384-well V-bottom plates (Greiner) using a Platemate Plus outfitted with a 384-channel head (Thermo Scientific). DMSO (1 ul) was added to Columns 11, 12, 23, 24, rows A-H for the maximum signal control and 1 ul of SAH, a known product and inhibitor of PRMT1, was added to columns 11, 12, 23, 24, rows I-P for the minimum signal control. A cocktail (40 ul) containing the PRMT1 enzyme was added by Multidrop Combi (Thermo-Fisher). The compounds were allowed to incubate with PRMT1 for 30 min at room temperature, then a cocktail (10 ul) containing SAM and peptide was added to initiate the reaction (final volume=51 ul). The final concentrations of the components were as follows: PRMT1 was 0.5 nM, ^3H-SAM was 200 nM, non-radiolabeled SAM was 1.5 uM, peptide was 20 nM, SAH in the minimum signal control wells was 1 mM, and the DMSO concentration was 2%. The assays were stopped by the addition of non-radiolabeled SAM (10 ul) to a final concentration of 300 uM, which dilutes the ^3H-SAM to a level where its incorporation into the peptide substrate is no longer detectable. 50 ul of the reaction in the 384-well polypropylene plate was then transferred to a 384-well Flashplate and the biotinylated peptides were allowed to bind to the streptavidin surface for at least 1 hour before being washed once with 0.1% Tween20 in a Biotek ELx405 plate washer. The plates were then read in a PerkinElmer TopCount plate reader to measure the quantity of ^3H-labeled peptide bound to the Flashplate surface, measured as disintegrations per minute (dpm) or alternatively, referred to as counts per minute (cpm).
Where dpm=disintegrations per minute, cmpd=signal in assay well, and min and max are the respective minimum and maximum signal controls. […]
`CNCCN(C)Cc1c[nH]nc1C1CCC(OCCCOC)C2(CCCC2)C1` (mixture of isomers) [compound 19, N1-((3-(10-(3-methoxypropoxy)spiro[4.5]decan-7-yl)-1H-pyrazol-4-yl)methyl)-N1,N2-dimethylethane-1,2-diamine dihydrochloride] registered an IC50 of 11.1 nM. To `CNCCN(C)Cc1c[nH]nc1[C@@H]1CC[C@@H](OCCCOC)C2(CCCC2)C1` (racemic) [compound 26, N1-((3-((7R,10R)-10-(3-methoxypropoxy)spiro[4.5]decan-7-yl)-1H-pyrazol-4-yl)methyl)-N1,N2-dimethylethane-1,2-diamine] belongs 14.3 nM. To `CNCCN(C)Cc1c[nH]nc1[C@@H]1CC[C@H](OCCCOC)C2(CCCC2)C1` (racemic) [compound 27, N1-((3-((7R,10S)-10-(3-methoxypropoxy)spiro[4.5]decan-7-yl)-1H-pyrazol-4-yl)methyl)-N1,N2-dimethylethane-1,2-diamine] belongs 6.58 nM; to `CNCCN(C)Cc1c[nH]nc1C1CC(COCC2CC2)CC(COCC2CC2)C1` (stereo not shown) [compound 2], 69.2 nM. Then `CNCCN(C)Cc1c[nH]nc1[C@H]1CC[C@@]2(CCCCO2)CC1` [compound 3], with 13.6 nM; and `CNCCN(C)Cc1c[nH]nc1[C@H]1CC[C@]2(CCCOC2)CC1` [compound 4, N1-((3-((6s,9s)-2-oxaspiro[5.5]undecan-9-yl)-1H-pyrazol-4-yl)methyl)-N1,N2-dimethylethane-1,2-diamine], with 9.43 nM. Turning to `CNCCN(C)Cc1c[nH]nc1[C@H]1CC[C@@]2(CCCOC2)CC1` [compound 5, N1-((3-((6r,9r)-2-oxaspiro[5.5]undecan-9-yl)-1H-pyrazol-4-yl)methyl)-N1,N2-dimethylethane-1,2-diamine], the IC50 is 11.7 nM. For `CNCCN(C)Cc1c[nH]nc1C1CCC(COCC(C)C)(COCC(C)C)CC1` [compound 6], the IC50 was determined as 16.7 nM.

On to `CNCCN(C)Cc1c[nH]nc1C1CCC2(CCC(OC)CC2)CC1` (stereo not shown) [compound 9, N1-((3-(9-methoxyspiro[5.5]undecan-3-yl)-1H-pyrazol-4-yl)methyl)-N1,N2-dimethylethane-1,2-diamine], for which the midpoint of inhibition, the IC50, lay at 8.7 nM. Then `CNCCN(C)Cc1c[nH]nc1[C@H]1CC[C@]2(CCN(CCC(C)C)C2=O)CC1` [compound 10], with 55 nM; and `CNCCN(C)Cc1c[nH]nc1[C@H]1CC[C@@]2(CCN(CCC(C)C)C2=O)CC1` [compound 11, (5r,8r)-2-isopentyl-8-(4-((methyl(2-(methylamino)ethyl)amino)methyl)-1H-pyrazol-3-yl)-2-azaspiro[4.5]decan-1-one], with 6.55 nM. To `CNCCN(C)Cc1c[nH]nc1C1C[C@@H](C(=O)N(C)CC(C)C)C(C)(C)[C@H](C(=O)N(C)CC(C)C)C1` (stereo partly shown) [compound 12] belongs > 10000 nM. To `CNCCN(C)Cc1c[nH]nc1C1C[C@H](C(=O)NCCOC)C(C)(C)[C@H](C(=O)NCCOC)C1` (stereo partly shown) [compound 13] belongs > 10000 nM; to `CCN(C)C(=O)C1CC(c2n[nH]cc2CN(C)CCNC)CC(C(=O)NCCC(C)C)C1(C)C` (stereo not shown) [compound 14, N1-ethyl-N3-isopentyl-N1,2,2-trimethyl-5-(4-((methyl(2-(methylamino)ethyl)amino)methyl)-1H-pyrazol-3-yl)cyclohexane-1,3-dicarboxamide], > 10000 nM. As for `CNCCN(C)Cc1c[nH]nc1C1=CCC(CF)(CF)CC1` [compound 15, N-((3-(4,4-bis(fluoromethyl)cyclohex-1-en-1-yl)-1H-pyrazol-4-yl)methyl)-N1,N2-dimethylethane-1,2-diamine], the midpoint of inhibition, the IC50, lay at 5.6 nM. The compound `CNCCN(C)Cc1c[nH]nc1C1=CCC(COCC(F)(F)F)CC1` (stereo not shown) [compound 16, N1,N2-dimethyl-N1-((3-(4-((2,2,2-trifluoroethoxy)methyl)cyclohex-1-en-1-yl)-1H-pyrazol-4-yl)methyl)ethane-1,2-diamine] yielded an IC50 of 11.2 nM. For the compound `CNCCN(C)Cc1c[nH]nc1C1CCC(C)(C)[C@H](OCC(C)C)C1` (stereo partly drawn) [compound 20, ({3-[(3R)-4,4-dimethyl-3-(2-methylpropoxy)cyclohexyl]-1H-pyrazol-4-yl}methyl)(methyl)[2-(methylamino)ethyl]amine], the half-maximal inhibitory concentration (IC50) worked out at 11 nM. Then `CCC1CC(c2n[nH]cc2CN(C)CCNC)CC(C(=O)NCCOC)C1(C)C` (stereo not shown) [compound 21, 3-ethyl-N-(2-methoxyethyl)-2,2-dimethyl-5-[4-([methyl[2-(methylamino)ethyl]amino]methyl)-1H-pyrazol-3-yl]cyclohexane-1-carboxamide dihydrochloride], with 246 nM; and `CCC1(CC)CC2(CCC(c3n[nH]cc3CN(C)CCNC)CC2)N(C)C1=O` (stereo not shown) [compound 22, 3,3-diethyl-1-methyl-8-(4-((methyl(2-(methylamino)ethyl)amino)methyl)-1H-pyrazol-3-yl)-1-azaspiro[4.5]decan-2-one], with 13.1 nM. To `CNCCN(C)Cc1c[nH]nc1[C@H]1CC[C@@H](COCC(F)(F)F)CC1` [compound 23, N1,N2-dimethyl-N1-((3-((1s,4s)-4-((2,2,2-trifluoroethoxy)methyl)cyclohexyl)-1H-pyrazol-4-yl)methyl)ethane-1,2-diamine] belongs 50.8 nM; to `CNCCN(C)Cc1c[nH]nc1[C@H]1CC[C@H](COCC(F)(F)F)CC1` [compound 24, N1,N2-dimethyl-N1-((3-((1r,4r)-4-((2,2,2-trifluoroethoxy)methyl)cyclohexyl)-1H-pyrazol-4-yl)methyl)ethane-1,2-diamine], 12.4 nM; to `CNCCN(C)Cc1cn(C)nc1C1CCC(C)(C)[C@@H](C(=O)NCC(C)C)C1` (stereo partly shown) [compound 25], 702 nM. To `CNCCNCc1c[nH]nc1[C@H]1CC[C@@]2(CC1)CC(C)(C)CO2` [compound 28, N1-((3-((5s,8s)-3,3-dimethyl-1-oxaspiro[4.5]decan-8-yl)-1H-pyrazol-4-yl)methyl)-N2-methylethane-1,2-diamine] belongs 13.2 nM; to `CNCCNCc1c[nH]nc1[C@H]1CC[C@]2(CC1)CC(C)(C)CO2` [compound 29, N1-((3-((5r,8r)-3,3-dimethyl-1-oxaspiro[4.5]decan-8-yl)-1H-pyrazol-4-yl)methyl)-N2-methylethane-1,2-diamine], 193 nM. With `CNCCN(C)Cc1c[nH]nc1C1CCC(C)(C)[C@H](COCCCOC)C1` (stereo partly drawn) [compound 30, {2-[({3-[(3R)-3-[(3-methoxypropoxy)methyl]-4,4-dimethylcyclohexyl]-1H-pyrazol-4-yl}methyl)(methyl)amino]ethyl}(methyl)amine], the IC50 turned out to be 21 nM. This IC50 is about 9.2-fold lower than that of the compound before. `CCOC[C@@H]1CC(c2n[nH]cc2CN(C)CCNC)CCC1(C)C` (stereo partly drawn) [compound 31, {2-[({3-[(3R)-3-(ethoxymethyl)-4,4-dimethylcyclohexyl]-1H-pyrazol-4-yl}methyl)(methyl)amino]ethyl}(methyl)amine] returned an IC50 of 25 nM. In turn, `CNCCN(C)Cc1c[nH]nc1C1CCC(C)(C)[C@H](CO)C1` (stereo partly drawn) [compound 32, [(1R)-2,2-dimethyl-5-[4-({methyl[2-(methylamino)ethyl]amino}methyl)-1H-pyrazol-3-yl]cyclohexyl]methanol] had an IC50 of 22.1 nM. The IC50 values of the last two compounds are within 1.5-fold of each other. Take `CCC1(CC)C[C@]2(CC[C@H](c3n[nH]cc3CN(C)CCNC)CC2)OC1=O` [compound 33, (5s,8s)-3,3-diethyl-8-(4-((methyl(2-(methylamino)ethyl)amino)methyl)-1H-pyrazol-3-yl)-1-oxaspiro[4.5]decan-2-one]: the IC50 turned out to be 13.2 nM. This IC50 is about 1.7-fold lower than that of the compound before.
